Results published in patent publication US8455523B2, “Compositions and methods for treating hyperlipidemias” (The Research Foundation of State University of New York, priority 2010, dated 2013).

System: C57Bl/6J mice fed either a chow or western diet
Assay: MTP inhibitor BMS-212122-01 with or without lovastatin, pioglitazone or PBA in chow or western diet fed C57Bl/6J mice
Format: in vivo
Conditions: for hepatic triglycerides: MTPi 1 mg/kg/day one week, lovastatin 50 or pioglitazone 25 mg/kg/day added to MTPi; for plasma ALT/AST levels: lovastatin added to MTPi; for hepatic free cholesterol: lovastatin or pioglitazone co-administered with MTPi; for Hepatic free fatty acids (FFA): lovastatin or pioglitazone with MTPi; for hepatic total and free cholesterol / hepatic triglycerides compared to western diet fed controls / plasma lipids: drug alone, one week
Description: FIG. 13. Age matched wildtype C57/Bl6J animals chow fed animals were treated with DMSO (control) or MTP inhibitor (MTPi) for one week. […] All drugs were administered by oral gavage. Animals were sacrificed on day 7 and plasma and livers were harvested and analyzed. * represent comparison to DMSO control; # represent comparisons to WD control; @ represent comparisons to WD MTP inhibitor treatment.
FIG. 18. Age matched wildtype C57/BL6J were fed WD for one month and were administered MTPi, or 4-phenylbutyric acid (PBA) everyday for one week. All drugs were administered by oral gavage. Animals were sacrificed on day 7 and livers were harvested. * represent comparison DMSO control; # represent comparisons to HF MTP inhibitor treated animals.
C57BL/6J Black 6 mice (stock number 000664) were obtained from Jackson Laboratory and used for chow fed and western diet fed experiments. MTP inhibitor (BMS […]) (1 mg/kg/day), Lovastatin, Pioglitazone (Toronto Research Chemicals P471000) (25 mg/kg/day) and 4-phenylbutyric acid (Calbiochem 820986) (1 g/kg/day) were administered by oral gavage. Chow fed animals were treated for one week with either DMSO or MTP inhibitor. Western diet fed animals were fed DMSO, MTP inhibitor, Pioglitazone, MTP inhibitor+Pioglitazone, Lovastatin, MTP inhibitor+Lovastatin, 4-phenylbutyric acid, and MTP inhibitor+4-phenylbutyric acid. Chow fed animals were also injected with either PBS or Tunicamycin and animals were sacrificed at 4, 8, 12 and 24 hours.
All animals were kept in 07:00-19:00 h lighting schedule. […] Food was withdrawn 16 h before the sacrifice of the mice. On the day of the experiment, mice were anesthetized and blood was collected from the heart. Liver was collected, washed in ice-cold PBS, cut into small pieces and used for lipid extraction, histological staining, to measure different protein activities/quantities and for mRNA analysis. Lipids were extracted from the tissue homogenates following the Bligh and Dyer method. Triglyceride (Infinity TM Triglyceride, TR22421) and total cholesterol (Infinity TM Cholesterol, TR13421) levels in the tissues were determined using commercial kits (Thermo Scientific). Free cholesterol and free fatty acid levels were measured using kits from Wako Chemicals (Germany). Esterified cholesterol was calculated by subtracting the free cholesterol from the total cholesterol.
We next studied the effects of chemical inhibition of MTP in C57Bl/6J mice fed either a chow or western diet (WD) for 5 weeks. Chow fed animals were orally gavaged with either DMSO or MTP inhibitor BMS-212122-01 (MTPi; 1 mg/kg/day) for one week. WD fed animals were treated with DMSO, MTP inhibitor with or without lovastatin (50 mg/kg/day) or pioglitazone (25 mg/kg/day) daily by oral gavage for one week.

Structure (SMILES)	hepatic triglycerides (listed as Lovastatin)	plasma ALT/AST levels (MTPi one week)	plasma ALT/AST levels (MTPi one week, listed as Lovastatin)	hepatic free cholesterol (MTPi one week)	Hepatic free fatty acids (FFA) (MTPi one week)	Cardiac tissue lipid profiles (WD fed, MTPi ± pioglitazone or lovastatin)	hepatic total and free cholesterol (WD fed)	hepatic triglycerides compared to western diet fed controls (WD fed)	plasma lipids (WD fed)	intestinal lipids (WD fed, with MTPi)	hepatic triglycerides	rise in intestinal free cholesterol seen with MTPi alone (WD fed, in conjunction with MTPi)	Plasma FFA levels (high fat feeding, MTPi one week, co-drugs with MTPi)
CC[C@H](C)C(=O)O[C@H]1C[C@@H](C)C=C2C=C[C@H](C)[C@H](CC[C@@H]3C[C@@H](O)CC(=O)O3)[C@H]21 [lovastatin]	without affecting	lowered	abrogated increases	reduced	resistant	no changes	decreased	no effect	no effect	no effect	–	–	–
CCc1ccc(CCOc2ccc(CC3SC(=O)NC3=O)cc2)nc1 (racemic) [pioglitazone, (RS)-5-(4-[2-(5-ethylpyridin-2-yl)ethoxy]benzyl)thiazolidine-2,4-dione]	–	–	–	reduced	resistant	–	decreased	slightly lower	no effect	–	abrogated	attenuated	completely abrogated
